Values of other authors in patent publication US20150148304A1, “Novel Peptides and Analogs for Use in the Treatment of Macrophage Activation Syndrome” (Soligenix, Inc., priority 2013, published 2015).

Legend:
[1] = tested on: macrophage activation syndrome; settings: Ravelli et al. 2001, cited from earlier work
[2] = target: T1, TLR9 (Homo sapiens, UniProt Q9NR96); settings: average; US 2011/0136845 Trawick et al.; cited from earlier work
T1 sequence (Q9NR96 26-1032): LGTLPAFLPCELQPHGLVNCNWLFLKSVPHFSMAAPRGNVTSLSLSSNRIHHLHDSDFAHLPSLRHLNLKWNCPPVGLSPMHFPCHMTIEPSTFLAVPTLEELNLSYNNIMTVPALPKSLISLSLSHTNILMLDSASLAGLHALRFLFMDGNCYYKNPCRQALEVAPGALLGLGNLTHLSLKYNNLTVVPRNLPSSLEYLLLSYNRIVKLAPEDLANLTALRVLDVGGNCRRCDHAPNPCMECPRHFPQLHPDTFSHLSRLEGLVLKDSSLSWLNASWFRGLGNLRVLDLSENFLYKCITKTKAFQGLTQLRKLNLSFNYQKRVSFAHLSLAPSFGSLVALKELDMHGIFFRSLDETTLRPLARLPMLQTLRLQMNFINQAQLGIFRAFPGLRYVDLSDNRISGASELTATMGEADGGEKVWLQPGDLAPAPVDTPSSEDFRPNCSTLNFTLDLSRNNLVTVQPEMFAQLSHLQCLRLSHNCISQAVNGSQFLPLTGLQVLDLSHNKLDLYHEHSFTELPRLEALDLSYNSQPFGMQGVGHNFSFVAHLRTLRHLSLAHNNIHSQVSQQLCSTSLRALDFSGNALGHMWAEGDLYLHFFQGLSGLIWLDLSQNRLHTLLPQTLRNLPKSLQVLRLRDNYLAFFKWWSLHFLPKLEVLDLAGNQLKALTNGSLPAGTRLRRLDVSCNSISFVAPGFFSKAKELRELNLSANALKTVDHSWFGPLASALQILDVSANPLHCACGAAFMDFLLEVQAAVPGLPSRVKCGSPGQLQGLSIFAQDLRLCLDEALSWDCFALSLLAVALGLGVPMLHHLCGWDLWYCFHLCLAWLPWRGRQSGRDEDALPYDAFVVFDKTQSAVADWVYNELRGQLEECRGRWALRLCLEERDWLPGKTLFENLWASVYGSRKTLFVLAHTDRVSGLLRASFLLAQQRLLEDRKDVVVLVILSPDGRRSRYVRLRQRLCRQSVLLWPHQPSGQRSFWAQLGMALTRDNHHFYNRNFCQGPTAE

[3] = cited from earlier work

Q: For cyclosporin A [CyA], which “efficacy in severe or corticosteroid-resistant macrophage activation syndrome” value ([1]; patients, Mouy et al. 1996) is on record?
A: effective

Q: And the “time to disappearance of fever and improvement of laboratory abnormalities” value ([1]; some patients)?
A: 12 to 24 h

Q: Which “inhibition of TLR9” value [2] does the source give for `O=C1CC[C@]2(O)[C@@H]3Cc4ccc(O)c5c4[C@]2(CCN3CC2CC2)[C@@H]1O5` [(+)-Naltrexone] here?
A: 51%

Q: Which “time of peak plasma levels after dosing” value ([3]; oral administration) does the source give for `O=C1CC[C@@]2(O)[C@H]3Cc4ccc(O)c5c4[C@@]2(CCN3CC2CC2)[C@H]1O5` [Naltrexone] here?
A: one

Q: And the “urinary excretion of unchanged Naltrexone” value ([3]; share of the elimination pathway)?
A: less than 2%
